From patent publication US20050106554A1, “Cryopreservation of pluripotent stem cells” (priority 2003, published 2005)

Legend:
[1] = test system: SSEA4 expression on HES cells; assay: SSEA4 expression on cryopreserved HES cells by flow cytometry; type: cell-based, human; settings: attached to Matrigel, loaded with 35 mM trehalose for 1 day; 10% DMSO, 30% FBS, 60% CM/F+ medium
Method: SSEA4 expression was determined by flow cytometry. After thawing, cells were allowed to grow on Matrigel™ in CM/F+ medium for 7 days, then colonies were removed from Matrigel™ by 1 mg/ml collagenase IV (GIBCO/BRL) treatment. Cells were dispersed by treatment with a 0.05% trypsin, 0.53 mM EDTA solution (GIBCO/BRL) for 5-10 minutes and filtered through a 40 μm mesh. 100 μl of the cell suspension containing 5×10^6 cells/ml was added to a sample tube and a control tube. 1 μl of MC813-70 (anti-SSEA4) (Kannagi et al. 1983) was added to the test tube and 5 μl of 1 mg/ml mouse IgG (Sigma) was added to the control tube. Tubes were vortexed and incubated on ice for 30 min. […] Samples were analyzed using a FACScan flow cytometer (Becton Dickinson) and Cellquest software (Becton Dickinson). […] The fluorescein signal was obtained through a 530/30 band pass filter and the mean fluorescence values for the IgG control and test samples were determined.
Furthermore, in addition to retention of OCT4 expression (see FIG. 6), applicants observed that when HES colonies were frozen in suspension in cryovials, adherent to Matrigel™, embedded in Matrigel™, and loaded with trehalose were able to maintain SSEA4 expression after recovery (FIG. 11, Table 1). […] The gated region for all samples was determined from the positive control (Sample A). […]

human keratinocytes = settings: intracellular trehalose on the order of 0.2M; cited from earlier work
murine 3T3 fibroblasts = settings: intracellular trehalose on the order of 0.2M; cited from earlier work
human pancreatic islets = settings: trehalose formulations added to cryopreserved islets; cited from earlier work
HES cells [2] = assay: Toxicity of trehalose in growth medium; type: cell-based, human; settings: cell exposure to growth medium containing trehalose
[3] = test system: hematopoeitic precursor cells; settings: trehalose added to cryopreservation media containing DMSO and FBS; cited from earlier work
HES colonies = assay: Colony recovery (colony count) after cryopreservation of adherent HES colonies; type: cell-based, human; settings: adherent without top Matrigel layer, 5 days after thawing
Method: In addition to providing higher cell viability, cryopreservation of adherent colonies increases the number of colonies that are able to remain attached to the surface and eventually grow (i.e., higher recovery rate). […] In referring to FIG. 4, approximately 10^6 HES cells were cultured in the well of a Matrigel™-coated 24 well plate. Colonies in sample a were harvested from the plate as intact colonies (were not dispersed) and suspended in cryopreservation media containing 10% DMSO, 30% FBS, and 60% CM/F+. Samples b-e were preserved attached to the Matrigel™ layer in the same cryopreservation media. Sample b was preserved without an additional layer of Matrigel™ poured over the cells prior to freezing, c with a Matrigel™ layer poured 1 hr prior to freezing, d with a Matrigel™ layer poured 24 hr prior to freezing, and e with a Matrigel™ layer poured 48 hr prior to freezing. All samples were stored in liquid nitrogen and thawed after 3 days, then grown for 1-2 weeks. Colonies were then counted to determine colony recovery. Error bars represent SEM for at least four independent trials.
Loading cells with 35 mM trehalose for 24 hours prior to freezing, and then freezing in medium containing DMSO results in an increase in the number of adherent colonies following thawing; virtually all colonies remain attached to the surface and can grow (FIG. 10). […]

HES cells [4] = assay: Cell viability by MTT and Alamar blue assays after cryopreservation of adherent HES colonies; type: cell-based, human
Method: In this example, cells were grown to approximately 1000-10,000 cell colonies on Matrigel™ or a MEF feeder layer in a 24 well plate. Average colony size was determined by counting colony number in a representative sample, then dispersing cells in the colony by treatment with 10 mg/ml dispase and counting cell number. The growth medium was aspirated from each well and a top layer of Matrigel™ was poured over the adherent colonies by diluting 6 mg Matrigel™ in 12 ml CM/F+ (conditioned medium+bFGF) and adding 0.5 ml to each well of the 24 well plate. The plate was incubated at 37° C. in a humidified 5% CO2 incubator for 1 hr and the Matrigel™ solution was aspirated from the plate. Then, 0.5 ml growth medium (HES or CM/F+ was added to each well and cells were cultured in the Matrigel™ for up to 2 days. Growth medium was aspirated from each well and 0.5 ml freezing medium containing varying concentrations of FBS, DMSO, and CM was added to each well. The fresh freezing medium was made on the day of freezing. The freezing medium generally contains 10% DMSO, 30% FBS and 60% conditioned HES media. The medium on the plate was aspirated off and replaced with 0.5 ml freezing medium.
The plate was sealed with parafilm and frozen to −80° C. at −1° C. per minute. Initial studies were performed by placing cells in a parafilm-sealed Styrofoam box in a −80° C. freezer, and later samples were frozen in a controlled-rate freezer (Model 8026, Forma Scientific). […] The solution was not seeded to form extracellular ice. The plates containing the cells were then transferred to liquid nitrogen and stored 5-7 days, which was long enough to stabilize the cells but permitted a reasonable experimental throughput.
To thaw the ES cells, plates were placed in a 37° C. water bath and swirled to thaw as rapidly as possible. After thawing, 1 ml fresh CM/F+ medium was added in a drop-wise manner to each well, then aspirated. Fresh media (0.5 ml) was added to each well and the cells were incubated at 37° C. in a humidified 5% CO2 incubator. […]
HES cells were cultured grown on flat-bottomed 24-well tissue culture plates coated with Matrigel™, with 0.5 ml CM/F+ in each well. […] Within an hour, absorbance at 595 nm was measured on a plate reading spectrophotometer (TECAN Genios). A standard curve for the MTT assay (not shown) was generated by growing HES colonies to different concentrations, ranging from 5×10^4 cells per well to 2×10^6 cells per well (determined by counting dispersed cells on a hemacytometer) on a Matrigel™-coated 24 well plate.
HES cells were cultured on flat-bottomed 24-well tissue culture plates coated with Matrigel™, with 0.5 ml CM/F+ in each well. […] Then absorbance was measured on a TECAN Genios plate reader at 595 nm. […]

HES cells [5] = assay: Trypan blue exclusion after cryopreservation of HES colonies in suspension; type: cell-based, human; settings: DMSO 0 to 10% in freezing medium, Trypan blue (FIG. 1)
Method: In order to cryopreserve ES cells in suspension, cells were grown to approximately 1000-10,000 cell colonies on Matrigel™ or a MEF feeder layer. Average colony size was determined by counting colony number in a representative sample, then dispersing cells in the colony by treatment with 10 mg/ml dispase and counting cell number. 1 mg/ml collagenase was used to detach colonies from the plate and the colonies were resuspended in freezing medium containing FBS, DMSO and CM at varying concentrations. Cells were not dispersed during freezing. The solution was not seeded to form extracellular ice. 1 ml of 1-3×10^5 cells/ml were placed in a cryovial and frozen at approximately −1° C. per minute. Initial studies were performed by placing cells in a Nalgene Cryo 1° C. freeze container in a −80° C. freezer, and later samples were frozen in a controlled-rate freezer (Forma Scientific, Model 8026). […] After reaching −80° C., cells were stored in liquid nitrogen. HES cells were harvested from a flat-bottomed 24-well tissue culture plate coated with Matrigel™ by addition of trypsin-EDTA (0.25% trypsin, 1 mM EDTA) until colonies were completely dispersed. HES cells were resuspended in 500 μl HES medium containing 10% FBS. […] Total cell number and the fraction of cells that incorporated Trypan blue were counted on a hemacytometer. […]

| SMILES | Percent of cells gated (SSEA4) [1] | cells surviving a freeze-thaw cycle (human keratinocytes) | cells surviving a freeze-thaw cycle (murine 3T3 fibroblasts) | viable cell recovery (human pancreatic islets) | trehalose concentration in growth medium causing toxicity (HES cells [2]) | increase in viability [3] | colonies recovered (HES colonies; loaded with 35 mM trehalose for 24 hours) | colonies recovered (HES colonies; loaded with 35 mM trehalose for 48 hours) | increase in viability compared to DMSO alone (HES cells [4]; 35 mM trehalose loaded 24 hours, 10% DMSO and FBS above 50%, p<0.05) [%] | viability vs loading for 24 hours or not loading (HES cells [4]; 35 mM trehalose loaded 48 hours) | additional protection during freezing and thawing (HES cells [4]; 35 mM trehalose loading, 10% DMSO and FBS concentrations less than 50%) | protection during freezing and thawing (HES cells [4]; 35 mM trehalose loading, absence of DMSO) | protection from membrane rupture during cryopreservation (HES cells [5]) |
| --- | --- | --- | --- | --- | --- | --- | --- | --- | --- | --- | --- | --- | --- |
| OC[C@H]1O[C@H](O[C@H]2O[C@H](CO)[C@@H](O)[C@H](O)[C@H]2O)[C@H](O)[C@@H](O)[C@@H]1O [trehalose] | 81.5 | approximately 75% | approximately 75% | doubles | greater than 35 mM | 7-20% | 82%±5% | 48%±10% | 25 | lower viability | no additional protection | no protection | – |
| C[S+](C)[O-] [DMSO, dimethyl sulfoxide] | – | – | – | – | – | – | – | – | – | – | – | – | protect HES cells from membrane rupture |
